Source: patent US7262183B2, “Substituted 5-membered n-heterocyclic compounds and their uses for treating or preventing neurodegenerative diseases” (Instititute of Pharmacology and Toxicology, priority 2001, dated 2007)

Key:
[1] = tested on: adult mice sympathetic nerve endings damaged by 6-hydroxy-dopamine (6-OHDA); assay: adult mice sympathetic nerve endings damaged by 6-OHDA, residual noradrenaline in submaxillary glands; type: in vivo; conditions: 10 mg/kg subcutaneous injection; 6-OHDA 8 mg/kg intraperitoneal; measured two weeks after last administration, HPLC-electrochemical detector
Procedure: The neurotrophic activity of the compounds of the present invention can also be determined in several animal pharmacological models in vivo, such as the model of adult mice sympathetic nerve endings damaged by 6-hydroxy-dopamine (6-OHDA).
Kunming species female mice (□) having a body weight of 18-22 g are randomly divided into the following groups: normal control group, model control group, FK506 (2 mg/kg) group, and the group of compound of the present invention (10 mg/kg) (10 mice per group). The mice are administrated with 6-OHDA (8 mg/kg) by intraperitoneal injection before 4 hours and after 4 continuous days of subcutaneous injection of the compound, while the control groups are administrated with the equivalent quantity of carrier by subcutaneous injection. After two weeks of the last administration, the mice are killed by luxation, and the two submaxillary glands of each of the mice are rapidly excised and weighed, placed in a glass grinder, then is homogenated with a homogenating liquid containing internal-standard, and centrifuged at 2000 g for 30 minutes. 20 μL of the obtained supernatant is directly injected in an HPLC-electrochemical detector to measure the content of noradrenaline (NE) in the submaxillary glands of the mice. […]

[2] = tested on: chick embryos dorsal root ganglia; assay: chick embryos dorsal root ganglion cultures free of serum, neurite process growth; type: cell-based; conditions: for Average scoring: 48 h, neurite score 0-3, average of 10 ganglia, control (NGF only) 0.33
Procedure: The neurotrophic activity of compounds of the present invention can be determined through several biological models in vitro, e.g. the model of chick embryos dorsal root ganglion cultures free of serum in vitro.
In a sterile environment, dorsal root ganglia were dissected from chick embryos of 8 days gestation and inoculated in rat rail collagen coated culture bottles (5 to 6 dorsal root ganglia per bottle, and two bottles per dosage). After 1 hour of attachment in a 37° C., 5% CO2 incubator, NGF (0.15 ng/ml) containing culture medium free of serum (DMEM) and the compound of the present invention were added. The control groups were treated only with the same amount of NGF and culture medium. […] Five to six DRGs were cultured per bottle, and each treatment was performed in duplicate. The results of illustrative compound of example 15 promoting the growth of chick embryos dorsal root ganglia processes were outlined in table 1, wherein the scoring is the average scoring of 10 ganglia.
FIG. 1 indicates the growth of neurites of chick dorsal root ganglia under various dosages of the compound of example 15. A represents that chick embryos dorsal root ganglia with rare processes is caused by the treatment of sole NGF (0.15 ng/mL).

SMILES	level of residual NE in the submaxillary glands of the mice (FIG. 2) [1]	Average scoring ([2]; 1 pM compound + NGF (0.15 ng/mL) in DMEM)	growth of neurites of chick dorsal root ganglia (FIG. 1) ([2]; 1 pM compound + NGF (0.15 ng/mL), FIG. 1 B)	Average scoring ([2]; 10 pM compound + NGF (0.15 ng/mL) in DMEM)	growth of neurites of chick dorsal root ganglia (FIG. 1) ([2]; 10 pM compound + NGF (0.15 ng/mL), FIG. 1 C, compared with 1 pM)	Average scoring ([2]; 100 pM compound + NGF (0.15 ng/mL) in DMEM)	growth of neurites of chick dorsal root ganglia (FIG. 1) ([2]; 100 pM compound + NGF (0.15 ng/mL), FIG. 1 D, compared with A, B and C)
CC(C)(C)C(=O)C(=O)N1CSC(C)(C)[C@@H]1C(=O)OCCCc1cccnc1 [Example 15, 3-(3-pyridyl)-1-propyl (2S)-5,5-dimethyl-1-(3,3-dimethyl-1,2-dioxobutyl)-2-(4-thiazolidine)carboxylate]	raise the residual NE level	1.00	enhances the improving effect of sole NGF (0.15 ng/mL) on the growth of neurites	1.31	stronger effect on the growth of neurites	1.57	strongest effect
CC(C)(C)C(=O)C(=O)N1CSC(C)(C)[C@@H]1C(=O)OCCCc1ccccc1 [Example 17, 3-phenyl-1-propyl (2S)-5,5-dimethyl-1-(3,3-dimethyl-1,2-dioxobutyl)-2-(4-thiazolidine)carboxylate]	raise the residual NE level						
